ChEMBL document CHEMBL5665443, “Enzyme Inhibitor Single Concentration assay results for EUbOPEN Chemogenomics Library” (2024)

Experiments:
[1] = target: Endonuclease 8-like 1 (Homo sapiens) (UniProt Q96FI4); conditions: Hit No;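 note: fluorescence at 594 nm from quenched duplex DNA oligonucleotides released by NEIL1 cleavage and strand separation, reported as reduction of this enzyme activity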
Description: Inhibition of NEIL1 by quantifying inhibition of NEIL1-mediated cleavage and dissociation of quenched duplex DNA oligonucleotides, measured as fluorescence at 594 nm.

[2] = target: T1, Endonuclease 8-like 2 (Homo sapiens) (UniProt Q969S2); conditions: Hit No;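 note: fluorescence at 594 nm reports NEIL2 cutting and release of a quenched double-stranded DNA oligo substrate, reduced signal read as inhibition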
T1 sequence (whole entry): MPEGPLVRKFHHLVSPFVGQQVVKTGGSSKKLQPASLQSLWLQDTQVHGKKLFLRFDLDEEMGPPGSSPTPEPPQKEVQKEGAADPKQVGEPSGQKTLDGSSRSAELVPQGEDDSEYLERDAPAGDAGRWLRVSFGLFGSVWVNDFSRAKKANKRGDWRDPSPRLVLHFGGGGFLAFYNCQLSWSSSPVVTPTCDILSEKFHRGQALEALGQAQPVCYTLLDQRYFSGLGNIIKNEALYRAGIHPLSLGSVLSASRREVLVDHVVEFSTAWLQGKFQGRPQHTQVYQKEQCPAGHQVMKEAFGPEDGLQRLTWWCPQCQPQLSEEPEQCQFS
Description: Inhibition of NEIL2 by quantifying inhibition of NEIL2-mediated cleavage and dissociation of quenched duplex DNA oligonucleotides, measured as fluorescence at 594 nm.

[3] = target: T2, Endonuclease III-like protein 1 (Homo sapiens) (UniProt P78549); conditions: Hit No;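 note: enzyme assay tracking NTHL1 cutting and release of a quenched double-stranded DNA oligo substrate, read as fluorescence at 594 nm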
T2 sequence (whole entry): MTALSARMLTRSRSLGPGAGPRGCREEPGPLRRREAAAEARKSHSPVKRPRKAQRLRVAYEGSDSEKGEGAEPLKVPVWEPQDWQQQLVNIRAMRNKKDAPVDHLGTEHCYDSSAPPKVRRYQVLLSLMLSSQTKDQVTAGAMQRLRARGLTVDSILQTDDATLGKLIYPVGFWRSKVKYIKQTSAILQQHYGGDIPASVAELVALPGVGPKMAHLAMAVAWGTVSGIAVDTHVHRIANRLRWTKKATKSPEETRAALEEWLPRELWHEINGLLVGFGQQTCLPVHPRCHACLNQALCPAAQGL
Description: Inhibition of NTHL1 by quantifying inhibition of NTHL1-mediated cleavage and dissociation of quenched duplex DNA oligonucleotides, measured as fluorescence at 594 nm.

[4] = target: N-glycosylase/DNA lyase (Homo sapiens) (UniProt O15527); conditions: Compound Concentration 10.0 uM, Hit No;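 note: OGG1 cleavage of a quenched duplex DNA oligonucleotide, coupled to APE1 for strand incision, read as fluorescence at 594 nm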
Description: Inhibition of OGG1 by quantifying inhibition of OGG1-mediated cleavage and dissociation of quenched duplex DNA oligonucleotides, measured as fluorescence at 594 nm. To generate a functional strand incision and increase turn-over this assay is coupled to APE1.

[5] = target: G/T mismatch-specific thymine DNA glycosylase (Homo sapiens) (UniProt Q13569); conditions: Hit No;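 note: human TDG cleavage of quenched duplex DNA oligonucleotides coupled to APE1, strand release read as fluorescence at 594 nm, inhibition of TDG activity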
Description: Inhibition of TDG by quantifying inhibition of TDG-mediated cleavage and dissociation of quenched duplex DNA oligonucleotides, measured as fluorescence at 594 nm. To generate a functional strand incision and increase turn-over this assay is coupled to APE1.

[6] = target: Uracil-DNA glycosylase (Homo sapiens) (UniProt P13051); conditions: Hit No;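 note: UNG excision on a quenched double-stranded DNA oligo probe, with APE1 added for strand incision and turnover, read as fluorescence at 594 nm as strands separate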
Description: Inhibition of UNG by quantifying inhibition of UNG-mediated cleavage and dissociation of quenched duplex DNA oligonucleotides, measured as fluorescence at 594 nm. To generate a functional strand incision and increase turn-over this assay is coupled to APE1.

[7] = target: T3, Single-strand selective monofunctional uracil DNA glycosylase (Homo sapiens) (UniProt Q53HV7); conditions: Hit No;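 note: enzymatic SMUG1 assay coupled with APE1, reading fluorescence at 594 nm released when a quenched double-stranded DNA oligonucleotide substrate is cleaved and separated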
T3 sequence (whole entry): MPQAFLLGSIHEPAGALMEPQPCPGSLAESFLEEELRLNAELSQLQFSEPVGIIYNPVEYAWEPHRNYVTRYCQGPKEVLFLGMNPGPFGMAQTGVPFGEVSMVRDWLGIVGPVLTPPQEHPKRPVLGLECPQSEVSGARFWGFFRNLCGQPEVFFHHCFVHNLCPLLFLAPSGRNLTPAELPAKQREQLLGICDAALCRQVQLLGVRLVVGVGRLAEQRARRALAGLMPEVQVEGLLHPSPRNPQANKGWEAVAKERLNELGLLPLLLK
Description: Inhibition of SMUG1 by quantifying inhibition of SMUG1-mediated cleavage and dissociation of quenched duplex DNA oligonucleotides, measured as fluorescence at 594 nm. To generate a functional strand incision and increase turn-over this assay is coupled to APE1.

Sequence of Endonuclease 8-like 1 (Homo sapiens) (Q96FI4 whole entry): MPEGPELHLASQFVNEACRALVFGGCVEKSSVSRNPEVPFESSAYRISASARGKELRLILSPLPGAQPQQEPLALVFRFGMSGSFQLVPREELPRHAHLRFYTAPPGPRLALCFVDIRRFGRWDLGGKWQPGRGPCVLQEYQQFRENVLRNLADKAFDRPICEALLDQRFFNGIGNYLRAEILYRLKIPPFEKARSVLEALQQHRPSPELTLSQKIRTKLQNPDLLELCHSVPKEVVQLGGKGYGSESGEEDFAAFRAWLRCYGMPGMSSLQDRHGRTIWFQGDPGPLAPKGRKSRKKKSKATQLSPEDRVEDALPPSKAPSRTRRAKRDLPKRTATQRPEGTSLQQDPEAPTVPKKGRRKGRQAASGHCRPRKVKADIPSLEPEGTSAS
Sequence of N-glycosylase/DNA lyase (Homo sapiens) (O15527 whole entry): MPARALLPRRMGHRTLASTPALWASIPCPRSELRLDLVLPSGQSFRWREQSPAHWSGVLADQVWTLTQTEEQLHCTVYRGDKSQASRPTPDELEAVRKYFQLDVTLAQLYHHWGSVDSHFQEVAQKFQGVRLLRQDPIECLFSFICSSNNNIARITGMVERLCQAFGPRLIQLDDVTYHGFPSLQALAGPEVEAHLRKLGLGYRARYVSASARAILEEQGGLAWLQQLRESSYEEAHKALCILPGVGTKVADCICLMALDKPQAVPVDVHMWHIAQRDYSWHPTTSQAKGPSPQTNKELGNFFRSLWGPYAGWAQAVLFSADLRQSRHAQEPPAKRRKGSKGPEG
Sequence of Uracil-DNA glycosylase (Homo sapiens) (P13051 whole entry): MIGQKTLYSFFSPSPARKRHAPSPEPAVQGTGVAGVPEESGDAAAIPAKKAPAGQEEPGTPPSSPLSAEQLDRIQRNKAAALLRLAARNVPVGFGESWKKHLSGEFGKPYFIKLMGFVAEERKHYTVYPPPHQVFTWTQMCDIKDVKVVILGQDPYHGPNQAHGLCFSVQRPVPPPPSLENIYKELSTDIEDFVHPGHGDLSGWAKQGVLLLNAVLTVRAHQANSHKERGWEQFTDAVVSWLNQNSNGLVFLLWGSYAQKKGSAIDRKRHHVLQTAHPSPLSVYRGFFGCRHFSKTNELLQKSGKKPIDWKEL
Sequence of G/T mismatch-specific thymine DNA glycosylase (Homo sapiens) (Q13569 whole entry): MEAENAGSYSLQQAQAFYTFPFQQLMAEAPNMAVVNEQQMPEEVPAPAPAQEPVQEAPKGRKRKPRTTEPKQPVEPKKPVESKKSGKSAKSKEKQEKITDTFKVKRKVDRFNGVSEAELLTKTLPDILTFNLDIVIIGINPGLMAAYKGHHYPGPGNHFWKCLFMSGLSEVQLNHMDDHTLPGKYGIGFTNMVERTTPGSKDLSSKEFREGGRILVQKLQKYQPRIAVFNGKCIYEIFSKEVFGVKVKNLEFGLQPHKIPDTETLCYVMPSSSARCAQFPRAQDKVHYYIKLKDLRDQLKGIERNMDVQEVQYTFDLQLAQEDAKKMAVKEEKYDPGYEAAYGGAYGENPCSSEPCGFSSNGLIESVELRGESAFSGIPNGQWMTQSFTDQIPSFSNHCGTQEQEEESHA

SMILES	inhibition ([1]; Compound Concentration 10.0 uM) [%]	inhibition ([2]; Compound Concentration 10.0 uM) [%]	inhibition ([3]; Compound Concentration 10.0 uM) [%]	inhibition [4] [%]	inhibition ([5]; Compound Concentration 10.0 uM) [%]	inhibition ([6]; Compound Concentration 10.0 uM) [%]	inhibition ([3]; Compound Concentration 1.0 uM) [%]	inhibition ([7]; Compound Concentration 1.0 uM) [%]	inhibition ([5]; Compound Concentration 1.0 uM) [%]	inhibition ([6]; Compound Concentration 1.0 uM) [%]	inhibition ([7]; Compound Concentration 10.0 uM) [%]	inhibition ([1]; Compound Concentration 1.0 uM) [%]	inhibition ([2]; Compound Concentration 1.0 uM) [%]
CCCCCCCCCCCCC/C=C/[C@@H](O)[C@@H](N)COP(=O)(O)O	4.69	6.5	-7.6	2.2	-7.17	-6.96							
CCOc1cc2ncc(C#N)c(Nc3ccc(OCc4cccc(F)c4)c(Cl)c3)c2cc1NC(=O)/C=C/CN(C)C							-5.49	11.5	25.8	3.4			
c1ccc2oc(-c3csc(C4CCN(Cc5nc6ncccc6[nH]5)CC4)n3)cc2c1	-4.83	1.3	-1.29	2.49	76.8	-7.49							
CC(F)(F)CN1CCOc2c(nn(-c3ccccc3Cl)c2-c2ccc(Cl)cc2)C1=O	-3.02	4.76	14.4	1.85	-6.66	-4.73							
Cc1c(-c2cc(-c3ccccc3Cl)no2)cnn1C1CCNCC1	5.79	-0.35	12.9		-8.91	-3.3					-1.2		
CC[N+](CC)(CC)CCOc1ccc(/C=C/c2ccccc2)cc1	3.86	0.669	0.568			1.13					8.74		
N=C(N)NCCC[C@H](NC(=O)C12CC3CC(CC(C3)C1)C2)C(=O)N[C@@H](Cc1ccccc1)C(N)=O	4.9	-4.94	13.8			-7.87					-6		
N#Cc1cc2c(OCC(O)CN3CCN(C(c4ccccc4)c4ccccc4)CC3)cccc2[nH]1 (racemic)	7.06	-1.98	-4.67	-4.64	-7.45	-9.6							
CCN1CCN(c2ccc(Nc3cc(N(C)C(=O)Nc4c(Cl)c(OC)cc(OC)c4Cl)ncn3)cc2)CC1							1.48	20.5	47.5	1.97		-0.787	-7.84
c1cc(CN2CCCNCCNCCCNCC2)ccc1CN1CCCNCCNCCCNCC1			13.7	-2.11	2.03						1.47		
CN(c1ncccc1CNc1ccnc(-c2cc3cc(Cl)ccc3[nH]2)n1)S(C)(=O)=O	8.2	1.85	-4.79		37.5	1.54					14.4		
Cc1ccccc1N1CCN(S(=O)(=O)C[C@]23CC[C@H](C[C@@H]2NC(=O)[C@@H](N)CCS(C)(=O)=O)C3(C)C)CC1	10.9	-8.47	20.2	-1.3	-7.58	-9.38							
CN1CCN(c2nc(N)c3ccccc3n2)CC1	6.68	16	17.1	-6.52	-3.58	-6.76							
COc1cc(C)c(Sc2cnc(NC(=O)c3ccc(CNC(C)C(C)(C)C)cc3)s2)cc1C(=O)N1CCN(C(C)=O)CC1 (stereo not drawn)	-0.787		-3.4		37.6	4.76					19.5		
CC(C)(N)C(=O)N[C@H](COCc1ccccc1)C(=O)N1CCC2(CC1)CN(S(C)(=O)=O)c1ccccc12	7.36	7	-1.74		6.18	-9.48					-6.91		
Cc1nc2ccc(Oc3ccc(F)cc3)cc2c(=O)n1C[C@H]1CCCN(C(C)C)C1	6.38		-3.56		-8.54	-4.71					-4.48		
O=C(Nc1c(-c2cccs2)nc2ccc(Cl)cn12)c1ccc(Cl)cc1	0.454	6.02	13.8	-9.75		-4.66							
